The OligoGym collection
Oligonucleotides are written 5' to 3', each unit as a sugar letter and its base; * is a phosphorothioate linkage, no mark a phosphodiester; rarer units and linkages stand in square brackets, end groups in braces. Plain capitals give the bases only. d = 2'-deoxy (DNA); r = 2'-OH (RNA)

These substances were tested against UBE2C (assay: reporter assay of Huesken 2005). Conditions: siRNA.
Note: test concentration or dose not given here.

Substance | normalised inhibition (eCFP-eYFP dual reporter)
sense rArArUrGrCrGrCrCrCrArCrArGrUrGrArArGrUdTdT / antisense rArCrUrUrCrArCrUrGrUrGrGrGrCrGrCrArUrUdGdT | 57.6%
sense rArArGrUrUrCrCrUrCrArCrGrCrCrCrUrGrCrUdTdT / antisense rArGrCrArGrGrGrCrGrUrGrArGrGrArArCrUrUdCdA | 51%
sense rGrArGrArArCrCrCrArArCrArUrUrGrArUrArGdTdT / antisense rCrUrArUrCrArArUrGrUrUrGrGrGrUrUrCrUrCdCdT | 66.3%
sense rUrGrCrCrUrGrGrArCrArUrCrCrUrGrArArGrGdTdT / antisense rCrCrUrUrCrArGrGrArUrGrUrCrCrArGrGrCrAdTdA | 49.2%
sense rCrCrCrUrGrCrUrArUrCrArCrCrCrCrArArCrGdTdT / antisense rCrGrUrUrGrGrGrGrUrGrArUrArGrCrArGrGrGdCdG | 53.1%
sense rCrArUrCrCrArGrArGrCrCrUrUrCrUrArGrGrAdTdT / antisense rUrCrCrUrArGrArArGrGrCrUrCrUrGrGrArUrGdGdA | 78.6%
sense rCrCrUrGrUrArUrGrArUrGrUrCrArGrGrArCrCdTdT / antisense rGrGrUrCrCrUrGrArCrArUrCrArUrArCrArGrGdGdC | 42%
sense rGrCrUrGrGrArArCrArGrUrArUrArUrGrArArGdTdT / antisense rCrUrUrCrArUrArUrArCrUrGrUrUrCrCrArGrCdTdG | 90.4%
sense rArCrGrUrGrGrArCrArCrCrCrArGrGrGrUrArAdTdT / antisense rUrUrArCrCrCrUrGrGrGrUrGrUrCrCrArCrGrUdTdG | 83%
sense rGrCrUrArUrCrArCrCrCrCrArArCrGrUrGrGrAdTdT / antisense rUrCrCrArCrGrUrUrGrGrGrGrUrGrArUrArGrCdAdG | 89.4%
sense rUrArGrArGrUrUrCrCrCrCrArGrUrGrGrCrUrAdTdT / antisense rUrArGrCrCrArCrUrGrGrGrGrArArCrUrCrUrAdGdC | 67.2%
sense rCrCrCrArGrUrGrGrCrUrArCrCrCrUrUrArCrAdTdT / antisense rUrGrUrArArGrGrGrUrArGrCrCrArCrUrGrGrGdGdA | 85.7%
sense rCrArUrGrCrUrGrCrCrGrArGrCrUrCrUrGrGrAdTdT / antisense rUrCrCrArGrArGrCrUrCrGrGrCrArGrCrArUrGdTdG | 90.5%
sense rArCrArUrUrGrArUrArGrUrCrCrCrUrUrGrArAdTdT / antisense rUrUrCrArArGrGrGrArCrUrArUrCrArArUrGrUdTdG | 90.8%
sense rGrArGrCrArGrCrUrGrGrArArCrArGrUrArUrAdTdT / antisense rUrArUrArCrUrGrUrUrCrCrArGrCrUrGrCrUrCdCdA | 85.2%
sense rCrCrUrGrGrArCrArUrCrCrUrGrArArGrGrArAdTdT / antisense rUrUrCrCrUrUrCrArGrGrArUrGrUrCrCrArGrGdCdA | 74.2%
sense rCrUrGrArGrGrUrArUrArArGrCrUrCrUrCrGrCdTdT / antisense rGrCrGrArGrArGrCrUrUrArUrArCrCrUrCrArGdGdT | 75.8%
sense rArGrCrUrGrGrArArCrArGrUrArUrArUrGrArAdTdT / antisense rUrUrCrArUrArUrArCrUrGrUrUrCrCrArGrCrUdGdC | 97.5%
sense rGrCrCrUrGrGrArCrArUrCrCrUrGrArArGrGrAdTdT / antisense rUrCrCrUrUrCrArGrGrArUrGrUrCrCrArGrGrCdAdT | 85.8%
sense rCrArGrGrArCrCrArUrUrCrUrGrCrUrCrUrCrCdTdT / antisense rGrGrArGrArGrCrArGrArArUrGrGrUrCrCrUrGdAdC | 45.4%
sense rGrCrCrCrArCrArGrUrGrArArGrUrUrCrCrUrCdTdT / antisense rGrArGrGrArArCrUrUrCrArCrUrGrUrGrGrGrCdGdC | 46.7%
sense rCrArUrUrCrUrGrCrUrCrUrCrCrArUrCrCrArGdTdT / antisense rCrUrGrGrArUrGrGrArGrArGrCrArGrArArUrGdGdT | 79.7%
sense rArCrCrCrUrUrArCrArArUrGrCrGrCrCrCrArCdTdT / antisense rGrUrGrGrGrCrGrCrArUrUrGrUrArArGrGrGrUdAdG | 47.4%
sense rCrCrCrCrArGrUrGrGrCrUrArCrCrCrUrUrArCdTdT / antisense rGrUrArArGrGrGrUrArGrCrCrArCrUrGrGrGrGdAdA | 67.7%
sense rArCrArArUrGrCrGrCrCrCrArCrArGrUrGrArAdTdT / antisense rUrUrCrArCrUrGrUrGrGrGrCrGrCrArUrUrGrUdAdA | 93.7%
sense rCrCrArCrArGrUrGrArArGrUrUrCrCrUrCrArCdTdT / antisense rGrUrGrArGrGrArArCrUrUrCrArCrUrGrUrGrGdGdC | 74.3%
